Laboratory results reported in patent US20220033434A1, “ANDROGEN RECEPTOR NUCLEIC ACIDS AND USES THEREOF” (Avidity Biosciences, Inc., priority 2016, published 2022).
In the oligonucleotide strings, read from the 5' end, every base follows the letter of its sugar. An asterisk marks phosphorothioate; unmarked linkages are phosphodiester. Other units and linkages are bracketed, terminal groups are in braces. A string of capitals states the bases alone. d = 2'-deoxy (DNA); m = 2'-O-methyl; f = 2'-fluoro

Legend:
Assay type in all cases: cell-based, human
AR FL(1) = experiment: AR protein knock-down by Western blot after siRNA transfection in 22RV1 cells: AR FL(1); details: 5 nM siRNA, 50 h post transfection, compared to controls
Description: (§1) In some instances, a set of AR siRNAs were identified that were predicted to be specific in human and non-human primates (NHP) and cross-reactive with NHPs but not rodent AR mRNA. To identify AR siRNAs that regulate both full length AR and clinically relevant AR splice variants, the search for AR siRNAs was focused primarily, but not exclusively, on exons 1, 2 and 3 of the AR gene, which are common to most AR isoforms. The resulting set of 50 AR siRNAs (Tables 1-3) was assessed in two prostate cancer lines that express high levels of either clinically relevant AR splice variants (22RV1, ATCC) or a full length AR T877A LBD mutant (LNCaP, ATCC). The response of LNCaP tumors in xenograft models to AR antagonists is known to correlate well with clinical responses.
(§2) To monitor their ability to downregulate various AR isoforms, each siRNA was formulated at a single final concentration of 5 nM with a commercially-available transfection reagent (Lipofectamine RNAiMAX, Life Technologies) according to the manufacturer's “forward transfection” instructions. At 50 h (22RV1) and 72 h (LNCaP) post transfection, cells were harvested, and lysed in RIPA buffer (Pierce) supplemented with HALT protease inhibitors (Pierce) using standard procedures. The protein concentration was determined using a BCA protein concentration kit (Pierce). To monitor AR levels in these lysates, proteins (30 ug/lane) were separated by PAGE on BOLT 4-12% Bis-Tris PA gels (Life Technologies), transferred to nitrocellulose using an iBlot dry blot system (Thermo Fisher), and probed with specific antibodies against a region of the N-terminal domain of human AR that is common in known clinically relevant splice variants (N20, Santa Cruz Biotech). A second antibody against α-Tubulin was used as control (P16, Santa Cruz Biotech). Levels of these proteins in the respective cell lysates were quantified on an Odyssey imaging system (LICOR) using appropriate secondary antibodies linked to IRDyes (800CW, 680RD).

AR-SV(2) = experiment: AR protein knock-down by Western blot after siRNA transfection in 22RV1 cells: AR-SV(2); details: 5 nM siRNA, 50 h post transfection, compared to controls
Description: as §1, §2

AR-SV(3) = experiment: AR protein knock-down by Western blot after siRNA transfection in 22RV1 cells: AR-SV(3); details: 5 nM siRNA, 50 h post transfection, compared to controls
Description: as §1, §2

[1] = system: AR FL (full length AR T877A LBD mutant); experiment: AR protein knock-down by Western blot after siRNA transfection in LNCaP cells: AR FL; details: 5 nM siRNA, 72 h post transfection, compared to controls
Description: as §1, §2

Substance	% KD AR Protein 22RV1 AR FL(1) (AR FL(1))	% KD AR Protein 22RV1 AR-SV(2) (AR-SV(2))	% KD AR Protein 22RV1 AR-SV(3) (AR-SV(3))	% KD AR Protein LNCaP AR FL [1]
XD-01815: AR siRNA with chemical modification, Id # 1968; sense X05325 (SEQ ID NO: 155), antisense X05326 (SEQ ID NO: 156) (sense mGmCfCmCfCmAfUmUfGmGfCmCfGmAfAmUfGmCfAdT*dT; antisense fUfGmCfAmUfUmCfGmGfCmCfAmAfUmGfGmGfGmCdT*dT)	−10%	5%	−15%	91%
XD-01845: AR siRNA with chemical modification, Id # 2966; sense X05385 (SEQ ID NO: 215), antisense X05386 (SEQ ID NO: 216) (sense mUmCfGmGfAmAfAmUfGmUfUmAfUmGfAmAfGmCfAdT*dT; antisense fUfGmCfUmUfCmAfUmAfAmCfAmUfUmUfCmCfGmAdT*dT)	92%	92%	72%	99%
XD-01835: AR siRNA with chemical modification, Id # 2924; sense X05365 (SEQ ID NO: 195), antisense X05366 (SEQ ID NO: 196) (sense mUmAfUmUfGmAfUmAfAmAfUmUfCmCfGmAfAmGfGdT*dT; antisense fCfCmUfUmCfGmGfAmAfUmUfUmAfUmCfAmAfUmAdT*dT)	89%	85%	83%	92%
XD-01833: AR siRNA with chemical modification, Id # 2922; sense X05361 (SEQ ID NO: 191), antisense X05362 (SEQ ID NO: 192) (sense mAmCfUmAfUmUfGmAfUmAfAmAfUmUfCmCfGmAfAdT*dT; antisense fUfUmCfGmGfAmAfUmUfUmAfUmCfAmAfUmAfGmUdT*dT)	94%	91%	77%	91%
XD-01822: AR siRNA with chemical modification, Id # 2263; sense X05339 (SEQ ID NO: 169), antisense X05340 (SEQ ID NO: 170) (sense mCmCfCmAfCmGfCmUfCmGfCmAfUmCfAmAfGmCfUdT*dT; antisense fAfGmCfUmUfGmAfUmGfCmGfAmGfCmGfUmGfGmGdT*dT)	34%	33%	41%	88%
XD-01854: AR siRNA with chemical modification, Id # 3416; sense X05403 (SEQ ID NO: 233), antisense X05404 (SEQ ID NO: 234) (sense mUmGfAmUfCmUfGmGfUmUfUmUfCmAfAmUfGmAfGdT*dT; antisense fCfUmCfAmUfUmGfAmAfAmAfCmCfAmGfAmUfCmAdT*dT)	95%	38%	46%	93%
XD-01856: AR siRNA with chemical modification, Id # 3469; sense X05407 (SEQ ID NO: 237), antisense X05408 (SEQ ID NO: 238) (sense mGmUfGmUfCmCfGmAfAmUfGmAfGmGfCmAfCmCfUdT*dT; antisense fAfGmGfUmGfCmCfUmCfAmUfUmCfGmGfAmCfAmCdT*dT)	77%	−61%	−74%	99%
XD-01831: AR siRNA with chemical modification, Id # 2847; sense X05357 (SEQ ID NO: 187), antisense X05358 (SEQ ID NO: 188) (sense mGmGfAmAfGmCfUmGfCmAfAmGfGmUfCmUfUmCfUdT*dT; antisense fAfGmAfAmGfAmCfCmUfUmGfCmAfGmCfUmUfCmCdT*dT)	57%	54%	59%	87%
XD-01846: AR siRNA with chemical modification, Id # 2975; sense X05387 (SEQ ID NO: 217), antisense X05388 (SEQ ID NO: 218) (sense mUmUfAmUfGmAfAmGfCmAfGmGfGmAfUmGfAmCfUdT*dT; antisense fAfGmUfCmAfUmCfCmCfUmGfCmUfUmCfAmUfAmAdT*dT)	87%	94%	76%	94%
XD-01837: AR siRNA with chemical modification, Id # 2927; sense X05369 (SEQ ID NO: 199), antisense X05370 (SEQ ID NO: 200) (sense mUmGfAmUfAmAfAmUfUmCfCmGfAmAfGmGfAmAfAdT*dT; antisense fUfUmUfCmCfUmUfCmGfGmAfAmUfUmUfAmUfCmAdT*dT)	87%	94%	86%	91%
XD-01824: AR siRNA with chemical modification, Id # 2741; sense X05343 (SEQ ID NO: 173), antisense X05344 (SEQ ID NO: 174) (sense mUmGfCmCfAmGfGmGfAmCfCmAfUmGfUmUfUmUfGdT*dT; antisense fCfAmAfAmAfCmAfUmGfGmUfCmCfCmUfGmGfCmAdT*dT)	3%	−32%	−44%	45%
XD-01849: AR siRNA with chemical modification, Id # 3105; sense X05393 (SEQ ID NO: 223), antisense X05394 (SEQ ID NO: 224) (sense mCmAfCmAfUmUfGmAfAmGfGmCfUmAfUmGfAmAfUdT*dT; antisense fAfUmUfCmAfUmAfGmCfCmUfUmCfAmAfUmGfUmGdT*dT)	86%	7%	−40%	92%
XD-01818: AR siRNA with chemical modification, Id # 2045; sense X05331 (SEQ ID NO: 161), antisense X05332 (SEQ ID NO: 162) (sense mCmCfCmUfUmUfCmAfAmGfGmGfAmGfGmUfUmAfCdT*dT; antisense fGfUmAfAmCfCmUfCmCfCmUfUmGfAmAfAmGfGmGdT*dT)	−6%	−48%	25%	93%
